SMILES strings stand for the structures.

The assay deals with T1, human melanin concentrating hormone receptor (MCHR1) (Homo sapiens, UniProt Q99705, A5T/E4Q).
T1 construct: expressed in transfected cells; host or cells: HEK-293 (stably transfected), membranes
T1 sequence (Q99705 whole entry E4Q/A5T): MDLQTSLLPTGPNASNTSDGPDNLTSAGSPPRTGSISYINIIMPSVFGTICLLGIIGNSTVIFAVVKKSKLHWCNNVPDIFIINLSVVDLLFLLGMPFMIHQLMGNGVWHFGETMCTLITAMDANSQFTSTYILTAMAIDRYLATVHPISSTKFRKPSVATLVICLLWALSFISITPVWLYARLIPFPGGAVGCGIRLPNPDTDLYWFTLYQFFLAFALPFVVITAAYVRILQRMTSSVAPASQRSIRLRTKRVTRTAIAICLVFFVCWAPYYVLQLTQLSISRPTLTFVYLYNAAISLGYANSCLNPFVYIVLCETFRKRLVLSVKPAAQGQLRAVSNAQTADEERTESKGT
Description: Radioligand binding assay for assessment of MCHR1 activity. Particulars: membranes from HEK-293 cells expressing a mutated (E4Q, A5T) hMCHR1 receptor; competition with 0.06 - 0.1 nM [Phe13, [125I]Tyr19]-MCH; 90 min. The protocol: Radioligand Binding Assay for Assessment of MCHR1 Activity
An in vitro binding assay was used to determine the compound Ki value or ability to antagonize binding of a peptide agonist to the human melanin concentrating hormone receptor (MCHR1). […] Binding experiments were carried out with 0.5-1.0 µg of membrane protein incubated in a total of 0.2 mL in 25 mM HEPES (pH 7.4) with 10 mM MgCl2, 2 mM EGTA, and 0.1% BSA (Binding Buffer) for 90 min. For competition binding assays, reactions were carried out in the presence of with 0.06 - 0.1 nM [Phe^13, [^125I]Tyr^19]-MCH and increasing concentrations of unlabeled test molecules. […] Filters were dried, 0.05 mL MicroScint 20 was added to each well and radioactivity was subsequently quantified by scintillation counting on a TOPCOUNT® microplate scintillation counter (Packard). Inhibitory constants were determined by nonlinear least squares analysis using a four parameter logistic equation.
The molecule `COc1cc(N2CC[C@@H](Oc3ccc(C(F)(F)F)cc3)C2=O)ccc1OCC(C)(C)O` (single isomer, unassigned) [Example 9] came in with a Ki of 23 nM.

As for `COc1cc(N2CC[C@H](Oc3ccc(C(F)(F)F)cc3)C2=O)ccc1OCC(C)(C)O` (single isomer, unassigned) [Example 10], the Ki worked out at 6000 nM. `Cc1cc(N2CC[C@@H](Oc3ccc(-c4ccccc4)cc3)C2=O)ccc1OCCS(C)(=O)=O` (single isomer, unassigned) [Example 106] gave an inhibition constant (Ki) of 636 nM. The figure for `COc1cc(N2CCC(Oc3ccccc3Cl)C2=O)ccc1OCC(C)(C)O` (stereo not drawn) [Example 1, 3-(2-Chlorophenoxy)-1-(4-(2-hydroxy-2-methylpropoxy)-3-methoxyphenyl)pyrrolidin-2-one] is 5000 nM.

`COc1cc(N2CCC(Oc3cccc(Cl)c3)C2=O)ccc1OCC(C)(C)O` (stereo not drawn) [Example 2] registered a Ki of 10000 nM. Turning to `COc1cc(N2CCC(Oc3ccc(Cl)cc3)C2=O)ccc1OCC(C)(C)O` (stereo not drawn) [Example 3], the Ki came out at 2060 nM. Regarding `COc1cccc(OC2CCN(c3ccc(OCC(C)(C)O)c(OC)c3)C2=O)c1` (stereo not drawn) [Example 4], the Ki amounted to 218 nM. `COc1ccc(OC2CCN(c3ccc(OCC(C)(C)O)c(OC)c3)C2=O)cc1` (stereo not drawn) [Example 5] registered a Ki of 662 nM. `COc1cc(N2CCC(Oc3ccccc3C(F)(F)F)C2=O)ccc1OCC(C)(C)O` (stereo not drawn) [Example 6] had a Ki of 7000 nM. As for `COc1cc(N2CCC(Oc3cccc(C(F)(F)F)c3)C2=O)ccc1OCC(C)(C)O` (stereo not drawn) [Example 7], the Ki came to 6000 nM.

`COc1cc(N2CCC(Oc3ccc(C(F)(F)F)cc3)C2=O)ccc1OCC(C)(C)O` (stereo not drawn) [Example 8] showed an inhibition constant (Ki) of 34 nM. This Ki lies about 180-fold lower than the previous one.

The molecule `COc1cc(N2CCC(Oc3cccc(OC(F)(F)F)c3)C2=O)ccc1OCC(C)(C)O` (stereo not drawn) [Example 11] registered a Ki of 5000 nM. Against the preceding molecule, the Ki is about 150-fold higher. `COc1cc(N2CCC(C)(Oc3ccc(OC(F)(F)F)cc3)C2=O)ccc1OCC(C)(C)O` (stereo not drawn) [Example 13, 1-(4-(2-Hydroxy-2-methylpropoxy)-3-methoxyphenyl)-3-methyl-3-(4-(trifluoromethoxy)phenoxy)pyrrolidin-2-one]: the affinity corresponds to a Ki of 473 nM.

In turn, `COc1cc(N2CCC(Oc3ccc(OC(F)(F)F)cc3)C2=O)ccc1OCC(C)(C)O` (stereo not drawn) [Example 14] came in with an inhibition constant (Ki) of 134 nM. `COc1cc(N2CC[C@@H](Oc3ccc(OC(F)(F)F)cc3)C2=O)ccc1OCC(C)(C)O` [Example 15]: the affinity corresponds to a Ki of 11 nM. In turn, `COc1cc(N2CC[C@H](Oc3ccc(OC(F)(F)F)cc3)C2=O)ccc1OCC(C)(C)O` [Example 16] yielded a Ki of 2340 nM.

Turning to `COc1cc(N2CCC(Oc3ccc(OC(F)(F)F)cc3Cl)C2=O)ccc1OCC(C)(C)O` (stereo not drawn) [Example 17], the Ki came to 402 nM. `COc1cc(N2CCC(Oc3ccc(OC(F)(F)F)c(F)c3)C2=O)ccc1OCC(C)(C)O` (stereo not drawn) [Example 18] showed a Ki of 959 nM. `COc1cc(N2CCC(Oc3ccc(-c4ccccc4)cc3)C2=O)ccc1OCC(C)(C)O` (stereo not drawn) [Example 19] yielded a Ki of 4 nM. In turn, `COc1cc(N2CC[C@H](Oc3ccc(-c4ccccc4)cc3)C2=O)ccc1OCC(C)(C)O` [Example 20] had a Ki of 493 nM. The molecule `COc1cc(N2CC[C@@H](Oc3ccc(-c4ccccc4)cc3)C2=O)ccc1OCC(C)(C)O` [Example 21] displayed a Ki of 2 nM.

In turn, `COc1cc(N2CCC(Oc3ccc(C4CC4)cc3)C2=O)ccc1OCC(C)(C)O` (stereo not drawn) [Example 22, 3-(4-Cyclopropylphenoxy)-1-(4-(2-hydroxy-2-methylpropoxy)-3-methoxyphenyl)pyrrolidin-2-one] displayed an inhibition constant (Ki) of 23 nM. For `COc1cc(N2CCC(Oc3ccc(OC4CC4)cc3)C2=O)ccc1OCC(C)(C)O` (stereo not drawn) [Example 23], the Ki was found to be 44 nM. `COc1cc(N2CCC(Oc3ccc(-c4ccccc4F)cc3)C2=O)ccc1OCC(C)(C)O` (stereo not drawn) [Example 24, 3-(2'-Fluorobiphenyl-4-yloxy)-1-(4-(2-hydroxy-2-methylpropoxy)-3-methoxyphenyl)pyrrolidin-2-one]: the affinity, expressed as Ki, was 9 nM. In turn, `COc1cc(N2CCC(Oc3ccc(-c4ccccc4Cl)cc3)C2=O)ccc1OCC(C)(C)O` (stereo not drawn) [Example 25] came in with a Ki of 68 nM.

`COc1cc(N2CCC(Oc3ccc(-c4ccccc4C)cc3)C2=O)ccc1OCC(C)(C)O` (stereo not drawn) [Example 26] returned a Ki of 81 nM. The figure for `COc1cc(N2CCC(Oc3ccc(-c4ccccc4OC)cc3)C2=O)ccc1OCC(C)(C)O` (stereo not drawn) [Example 27] is 238 nM. In turn, `COc1cc(N2CCC(Oc3ccc(-c4ccccc4C(F)(F)F)cc3)C2=O)ccc1OCC(C)(C)O` (stereo not drawn) [Example 28] gave a Ki of 956 nM. `COc1cc(N2CCC(Oc3ccc(-c4ccccc4)c(Cl)c3)C2=O)ccc1OCC(C)(C)O` (stereo not drawn) [Example 29] gave an inhibition constant Ki of 87 nM. In the case of `COc1cc(N2CCC(Oc3ccc(-c4ccccc4)c(F)c3)C2=O)ccc1OCC(C)(C)O` (stereo not drawn) [Example 30], the Ki amounted to 12 nM. `COc1cc(N2CCC(Oc3ccc(-c4ccccc4F)c(F)c3)C2=O)ccc1OCC(C)(C)O` (stereo not drawn) [Example 31] showed a Ki of 34 nM. For `COc1cc(N2CCC(Oc3ccc(-c4ccncc4Cl)cc3)C2=O)ccc1OCC(C)(C)O` (stereo not drawn) [Example 32], the Ki was determined as 634 nM.

`Cc1cc(N2CCC(Oc3ccc(N4CCOCC4)cc3)C2=O)ccc1OCC(C)(C)O` (stereo not drawn) [Example 33] displayed a Ki of 903 nM. Molecule `COc1cc(N2CCC(Oc3ccc(-c4ccccc4)cn3)C2=O)ccc1OCC(C)(C)O` (stereo not drawn) [Example 34, 1-(4-(2-Hydroxy-2-methylpropoxy)-3-methoxyphenyl)-3-(5-phenylpyridin-2-yloxy)pyrrolidin-2-one] showed a Ki of 13 nM. Against the preceding molecule, the Ki is about 69-fold lower. In the case of `COc1cc(N2CCC(Oc3ccc(-c4ccccc4)nc3)C2=O)ccc1OCC(C)(C)O` (stereo not drawn) [Example 35] it was 81 nM; in that of `COc1cc(N2CCC(Oc3ccc(-c4cccnc4)cc3)C2=O)ccc1OCC(C)(C)O` (stereo not drawn) [Example 36], 67 nM; in that of `COc1cc(N2CCC(Oc3ccc(-c4ccncc4)cc3)C2=O)ccc1OCC(C)(C)O` (stereo not drawn) [Example 37], 73 nM. The figure for `COc1cc(N2CCC(Oc3ccc(-n4cccc4)cc3)C2=O)ccc1OCC(C)(C)O` (stereo not drawn) [Example 38] is 5 nM; for `COc1cc(N2CCC(Oc3ccc(-n4ccnc4)cc3)C2=O)ccc1OCC(C)(C)O` (stereo not drawn) [Example 39] it is 480 nM.

`COc1cc(N2CCC(Oc3ccc(Br)c(Cl)c3)C2=O)ccc1OCC(C)(C)O` (stereo not drawn) [Example 41] yielded a Ki of 522 nM.

In turn, `COc1cc(N2CCC(Oc3ccc(Br)c(F)c3)C2=O)ccc1OCC(C)(C)O` (stereo not drawn) [Example 42] displayed a Ki of 821 nM. In the case of `COc1ccc(N2CCC(Oc3ccc(-c4ccccc4)cc3)C2=O)cc1OC` (stereo not drawn) [Example 43] it was 19 nM; in that of `COc1cc(N2CC[C@@H](Oc3ccc(-c4ccccc4)cc3)C2=O)ccc1OC[C@H](O)C1CC1` [Example 44], 4 nM. As for `COc1cc(N2CC[C@H](Oc3ccc(-c4ccccc4)cc3)C2=O)ccc1OC[C@H](O)C1CC1` [Example 45], the Ki was 1060 nM. Against the preceding molecule, the Ki is about 260-fold higher. The molecule `COc1cc(N2CCC(Oc3ccc(C4CC4)cc3)C2=O)ccc1OC[C@H](O)C1CC1` (stereo partly drawn) [Example 46] yielded a Ki of 12 nM. `COc1cc(N2CCC(Oc3ccc(-c4ccccc4)cc3)C2=O)ccc1OCC1(O)CC(F)(F)C1` (stereo not drawn) [Example 47] returned a Ki of 7 nM. This Ki lies about 1.7-fold lower than the previous one.

For the molecule `CCS(=O)(=O)C[C@H](O)COc1ccc(N2CCC(Oc3ccc(OC(F)(F)F)cc3)C2=O)cc1OC` (stereo partly drawn) [Example 50], the Ki worked out at 197 nM.

Molecule `CCS(=O)(=O)C[C@@H](O)COc1ccc(N2CCC(Oc3ccc(OC(F)(F)F)cc3)C2=O)cc1OC` (stereo partly drawn) [Example 51] yielded a Ki of 78 nM. This Ki lies about 2.5-fold lower than the previous one. `CCS(=O)(=O)C[C@@H](O)COc1ccc(N2CCC(Oc3ccc(C4CC4)cc3)C2=O)cc1OC` (stereo partly drawn) [Example 52] showed an inhibition constant Ki of 16 nM.

In turn, `CCS(=O)(=O)C[C@@H](O)COc1ccc(N2CCC(Oc3ccc(C(F)(F)F)cc3)C2=O)cc1OC` (stereo partly drawn) [Example 53] registered a Ki of 109 nM.

`CCS(=O)(=O)C[C@@H](O)COc1ccc(N2CCC(Oc3ccc(-c4ccc(F)cc4)cc3)C2=O)cc1OC` (stereo partly drawn) [Example 54] came in with a Ki of 21 nM. The figure for `CCS(=O)(=O)C[C@@H](O)COc1ccc(N2CCC(Oc3ccc(-c4cccc(F)c4)cc3)C2=O)cc1OC` (stereo partly drawn) [Example 55] is 38 nM; for `CCS(=O)(=O)C[C@@H](O)COc1ccc(N2CCC(Oc3ccc(OC4CC4)cc3)C2=O)cc1OC` (stereo partly drawn) [Example 56] it is 71 nM; for `COc1cc(N2CCC(Oc3ccc(-c4ccccc4)cc3)C2=O)ccc1OCC1(O)CCS(=O)(=O)CC1` (stereo not drawn) [Example 57] it is 2 nM. `COc1cc(N2CCC(Oc3ccc(-c4ccccc4)cc3)C2=O)ccc1OC[C@H](O)CS(C)(=O)=O` (stereo partly drawn) [Example 58, 3-(Biphenyl-4-yloxy)-1-(4-((S)-2-hydroxy-3-(methylsulfonyl)propoxy)-3-methoxyphenyl)pyrrolidin-2-one] registered a Ki of 9 nM.

With `COc1cc(N2CCC(Oc3ccc(-c4ccc(F)cc4)cc3)C2=O)ccc1OC[C@H](O)CS(C)(=O)=O` (stereo partly drawn) [Example 59], the Ki was 18 nM.

The molecule `COc1cc(N2CCC(Oc3ccc(C4CC4)cc3)C2=O)ccc1OC[C@H](O)CS(C)(=O)=O` (stereo partly drawn) [Example 60] returned a Ki of 17 nM. The Ki values of the last two molecules are within 1.5-fold of each other. `COc1cc(N2CCC(Oc3ccc(OC(F)(F)F)cc3)C2=O)ccc1OC[C@H](O)CS(C)(=O)=O` (stereo partly drawn) [Example 61] yielded a Ki of 65 nM. Against the preceding molecule, the Ki is about 3.8-fold higher. Take `COc1cc(N2CCC(Oc3ccc(-c4ccccc4)cc3)C2=O)ccc1OC[C@@H](O)CS(C)(=O)=O` (stereo partly drawn) [Example 62]: the inhibition constant (Ki) came to 11 nM. `COc1cc(N2CCC(Oc3ccc(-c4ccc(F)cc4)cc3)C2=O)ccc1OC[C@@H](O)CS(C)(=O)=O` (stereo partly drawn) [Example 63] displayed a Ki of 38 nM. This Ki is about 3.5-fold higher than that of the molecule before.

For orientation: Ki means a dissociation constant, usually derived from enzyme kinetics or from competition with a known ligand.

The values are drawn from patent EP2892896B1 (Bristol-Myers Squibb Company, priority 2012, dated 2014).
